Measured values taken from patent US8530652B2, “Pyrrolopyrazoles, potent kinase inhibitors” (Agouron Pharmaceuticals, Inc., priority 2005, dated 2013).
Read-outs that look alike come from different tables or passages of the source.

Experiments:
[1] = biological target: PAK4 kinase domain (PAK4 KD) (Homo sapiens (Human), UniProt O96013); experiment: PAK4 kinase domain enzymatic assay (coupled PK/LDH, NADH absorbance at 340 nm); format: biochemical
[2] = biological target: PAK4 kinase activity in whole cells (TR-293-KDG, modified HEK 293 overexpressing GEF-H1b and PAK4 KD) (Homo sapiens (Human), UniProt O96013); experiment: PAK4 cellular assay: sandwich ELISA of PAK4-dependent phosphorylation of GEF-H1b in TR-293-KDG cells; format: cell-based; settings: doxycycline-induced, 3-hour exposure, phospho-GEF-H1b ELISA
From the text: A sandwich ELISA method was used to measure the PAK4 kinase activity in whole cells. The level of PAK4-dependent phosphorylation of GEF-H1b can be determined by monitoring the binding of a phosphospecific antibody to GEF-H1b. A modified HEK 293 cell line is used in the bioassay and it has been engineered to overexpress both GEF-H1b and the kinase domain (KD) of PAK4. The KD of PAK4 is inducible in this cell line by tetracycline (Trex system, Invitrogen). The name of this cell line has been designated TR-293-KDG. To establish a phosphorylation event on GEF-H1, cells are induced with doxycycline to express the PAK4 KD. […] Candidate substance effect is measured as the ability to block this phosphorylation event.
ELISA plate was prepared by pre-coating the plates with a capture antibody (α-HA-tag mouse monoclonal antibody), blocked with BSA, and washed in 0.1% tween 20 in tris-buffered saline (TBST). Tissue culture plates (precoated with poly-D-lysine) were seeded with TR-293-KDG cells. The TR-293-KDG Cells were induced to express the PAK4 KD with doxycycline overnight and subsequently & concomitantly treated with candidate substances or diluent for an additional 3-hour, continuous exposure. Cells were then lysed with a modified RIPA buffer supplemented with protease inhibitors. The fresh whole cell lysates were then added to the ELISA plate for 2-hours. Between all subsequent steps plates were washed 4 times with TBST. Detection antibody (recognizing the phospho-specific eptitope on GEF-H1b) was added for 1 hour, followed by addition of an enzyme linked goat α-rabbit secondary antibody for 45 minutes. […] EC50 values were calculated by sigmoid curve fitting using a four-parameter analysis.

[3] = PAK4 kinase domain, 25 nM PAK4 KD, 0.04 mM ATP, pH 7.5

Sequence of PAK4 kinase domain (PAK4 KD) (O96013 321-572): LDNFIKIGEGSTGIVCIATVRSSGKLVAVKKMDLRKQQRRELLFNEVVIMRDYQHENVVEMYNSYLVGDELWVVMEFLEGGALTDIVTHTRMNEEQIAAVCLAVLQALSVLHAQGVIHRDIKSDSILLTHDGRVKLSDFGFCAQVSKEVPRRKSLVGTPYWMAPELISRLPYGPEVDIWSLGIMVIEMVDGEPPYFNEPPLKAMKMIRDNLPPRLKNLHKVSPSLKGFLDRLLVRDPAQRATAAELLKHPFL
Sequence of PAK4 kinase activity in whole cells (TR-293-KDG, modified HEK 293 overexpressing GEF-H1b and PAK4 KD) (O96013 321-572): as above

Row | Structure (SMILES) | Ki [1, 3] [nM] | EC50 [2] [nM] | Ki [1] [nM]
1 | CC1(C)c2[nH]nc(Nc3ccnc(C(F)(F)F)n3)c2CN1C(=O)N[C@H]1C[C@@H]1c1ccccc1 (relative stereo) [Example 30, 6,6-dimethyl-N-[trans-2-phenylcyclopropyl]-3-{[2-(trifluoromethyl)pyrimidin-4-yl]amino}-4,6-dihydropyrrolo[3,4-c]pyrazole-5(1H)-carboxamide] | 80 | 968 | –
2 | CC1(C)c2[nH]nc(Nc3ncnc4sccc34)c2CN1C(=O)N[C@@H]1C[C@H]1c1ccccc1 (relative stereo) [Example 42, 6,6-dimethyl-N-[trans-2-phenylcyclopropyl]-3-(thieno[2,3-d]pyrimidin-4-ylamino)-4,6-dihydropyrrolo[3,4-c]pyrazole-5(1H)-carboxamide] | 94 | 610 | –
3 | Cc1nc(Nc2n[nH]c3c2CN(C(=O)N[C@H]2C[C@@H]2c2ccccc2)C3(C)C)c2sccc2n1 (relative stereo) [Example 41, 6,6-dimethyl-3-[(2-methylthieno[3,2-d]pyrimidin-4-yl)amino]-N-[trans-2-phenylcyclopropyl]-4,6-dihydropyrrolo[3,4-c]pyrazole-5(1H)-carboxamide] | 24 | 147 | –
4 | CC1(C)c2[nH]nc(Nc3nc(C#N)nc4ccccc34)c2CN1C(=O)N[C@@H]1C[C@H]1c1ccccc1 (relative stereo) [Example 40, 3-[(2-cyanoquinazolin-4-yl)amino]-6,6-dimethyl-N-[trans-2-phenylcyclopropyl]-4,6-dihydropyrrolo[3,4-c]pyrazole-5(1H)-carboxamide] | 18 | 98 | –
5 | Cc1nc(Nc2n[nH]c3c2CN(C(=O)N[C@H](CN(C)C)c2ccccc2)C3(C)C)c2ccsc2n1 [Example 58, N-[(1S)-2-(dimethylamino)-1-phenylethyl]-6,6-dimethyl-3-[(2-methylthieno[2,3-d]pyrimidin-4-yl)amino]-4,6-dihydropyrrolo[3,4-c]pyrazole-5(1H)-carboxamide] | – | 2.5 | 14
6 | CN(C)C[C@@H](OC(=O)N1Cc2c(Nc3ccnc(C#N)n3)n[nH]c2C1(C)C)c1ccccc1 [Example 70, (1S)-2-(dimethylamino)-1-phenylethyl 3-[(2-cyanopyrimidin-4-yl)amino]-6,6-dimethyl-4,6-dihydropyrrolo [3,4-c]pyrazole-5(1H)-carboxylate] | 8.8 | 1.9 | –
7 | Cc1cc2c(Nc3n[nH]c4c3CN(C(=O)N[C@@H]3C[C@H]3c3ccccc3)C4(C)C)ncnc2s1 (relative stereo) [Example 35, 6,6-dimethyl-3-[(6-methylthieno[2,3-d]pyrimidin-4-yl)amino]-N-[trans-2-phenylcyclopropyl]-4,6-dihydropyrrolo[3,4-c]pyrazole-5(1H)-carboxamide] | 260 | 262 | –
8 | Cc1nc(Nc2n[nH]c3c2CN(C(=O)O[C@H](CN(C)C)c2ccccc2)C3(C)C)c2sccc2n1 [Example 73, (1S)-2-(dimethylamino)-1-phenylethyl 6,6-dimethyl-3-[(2-methylthieno[3,2-d]pyrimidin-4-yl)amino]-4,6-dihydropyrrolo[3,4-c]pyrazole-5(1H)-carboxylate] | 1.6 | < 3.9 | –
9 | CCOc1ncc(F)c(Nc2n[nH]c3c2CN(C(=O)N[C@@H]2C[C@H]2c2ccccc2)C3(C)C)n1 (relative stereo) [Example 37, 3-[(2-ethoxy-5-fluoropyrimidin-4-yl)amino]-6,6-dimethyl-N-[trans-2-phenylcyclopropyl]-4,6-dihydropyrrolo[3,4-c]pyrazole-5(1H)-carboxamide] | 270 | 805 | –
10 | CC1(C)c2[nH]nc(Nc3ccnc(C#N)n3)c2CN1C(=O)N[C@@H]1C[C@H]1c1ccccc1 (relative stereo) [Example 33, 3-[(2-cyanopyrimidin-4-yl)amino]-6,6-dimethyl-N-[trans-2-phenylcyclopropyl]-4,6-dihydropyrrolo[3,4-c]pyrazole-5(1H)-carboxamide] | 47 | 618 | –
11 | Cc1ncnc(Nc2n[nH]c3c2CN(C(=O)O[C@H](CN(C)C)c2ccccc2)C3(C)C)c1F [Example 77, (1S)-2-(dimethylamino)-1-phenylethyl 3-[(5-fluoro-6-methylpyrimidin-4-yl)amino]-6,6-dimethyl-4,6-dihydropyrrolo[3,4-c]pyrazole-5(1H)-carboxylate] | 93 | 69 | –
12 | COc1nc(Nc2n[nH]c3c2CN(C(=O)NC2CC2c2ccccc2)C3(C)C)nc(N2CCC[C@H]2C#N)n1 (stereo in doubt) [Example 20, 3-({4-[(2S)-2-cyanopyrrolidin-1-yl]-6-methoxy-1,3,5-triazin-2-yl}amino)-6,6-dimethyl-N-[trans-2-phenylcyclopropyl]-4,6-dihydropyrrolo[3,4-c]pyrazole-5(1H)-carboxamide] | – | 1200 | 90
13 | Cc1nc(Nc2n[nH]c3c2CN(C(=O)N[C@@H]2C[C@H]2c2ccccc2)C3(C)C)c2sccc2n1 [Example 32, 6,6-Dimethyl-3-[(2-methylthieno[3,2-d]pyrimidin-4-yl)amino]-N-[(1R,2S)-2-phenylcyclopropyl]-4,6-dihydropyrrolo[3,4-c]pyrazole-5(1H)-carboxamide] | 3.5 | 19 | –
14 | CC1(C)c2[nH]nc(Nc3ncnc4ccsc34)c2CN1C(=O)N[C@@H]1C[C@H]1c1ccccc1 [Example 51, 6,6-dimethyl-N-[(1R,2S)-2-phenylcyclopropyl]-3-(thieno[3,2-d]pyrimidin-4-ylamino)-4,6-dihydropyrrolo[3,4-c]pyrazole-5(1H)-carboxamide] | 18 | 31 | –
15 | CC1(C)c2[nH]nc(Nc3ncnc4ccoc34)c2CN1C(=O)N[C@H]1C[C@@H]1c1ccccc1 (relative stereo) [Example 53, 3-(furo[3,2-d]pyrimidin-4-ylamino)-6,6-dimethyl-N-(trans-2-phenylcyclopropyl)-4,6-dihydropyrrolo[3,4-c]pyrazole-5(1H)-carboxamide] | 67 | 1740 | –
16 | Cc1nc(Nc2n[nH]c3c2CN(C(=O)N[C@@H]2C[C@H]2c2ccccc2)C3(C)C)c2ccccc2n1 (relative stereo) [Example 84, 3-[(2-methylquinazolin-4-yl)amino]-6,6-dimethyl-N-[trans-2-phenylcyclopropyl]-4,6-dihydropyrrolo[3,4-c]pyrazole-5(1H)-carboxamide] | 34 | 455 | –
17 | CC1(C)c2[nH]nc(Nc3nc(Cl)nc(Cl)n3)c2CN1C(=O)N[C@@H]1C[C@H]1c1ccccc1 (relative stereo) [Example 9, 3-[(4,6-dichloro-1,3,5-triazin-2-yl)amino]-6,6-dimethyl-N-[trans-2-phenylcyclopropyl]-4,6-dihydropyrrolo[3,4-c] pyrazole-5(1H)-carboxamide] | 270 | > 4000 | –
18 | CN(C)c1nc(Nc2n[nH]c3c2CN(C(=O)NC2C[C@@H]2c2ccccc2)C3(C)C)nc(N2CCC[C@H]2CO)n1 (stereo partly drawn) [Example 23, 3-({4-(dimethylamino)-6-[(2S)-2-(hydroxymethyl)pyrrolidin-1-yl]-1,3,5-triazin-2-yl}amino)-6,6-dimethyl-N-[trans-2-phenylcyclopropyl]-4,6-dihydropyrrolo[3,4-c]pyrazole-5(1H)-carboxamide] | 140 | > 4000 | –
19 | CN1CCN(C(=O)N2Cc3c(Nc4nc(Cl)nc5ccsc45)n[nH]c3C2(C)C)[C@@H](Cc2ccccc2)C1 [Example 3, N-(5-{[(2S)-2-benzyl-4-methylpiperazin-1-yl]carbonyl}-6,6-dimethyl-1,4,5,6 tetrahydropyrrolo[3,4-c]pyrazol-3-yl)-2-chlorothieno[3,2-d]pyrimidin-4-amine] | 11 | 16 | –
